Results: the NIST ThermoML archive (doi:10.1021/je049721u)
Numbers after ± are expanded uncertainties.

Test: mn = molality of the nth substance listed, in mol/kg
Settings: 101.3 kPa, Liquid; for speed of sound: Pulse-echo method

[Ni+2].[O-][Cl+3]([O-])([O-])[O-].[O-][Cl+3]([O-])([O-])[O-] [nickel perchlorate] + CN(C)C=O
Settings	mass density, 283.15 K [kg/m3]	mass density, 293.15 K [kg/m3]	mass density, 298.15 K [kg/m3]	mass density, 303.15 K [kg/m3]	mass density, 313.15 K [kg/m3]	mass density, 323.15 K [kg/m3]	mass density, 333.15 K [kg/m3]	speed of sound, 298.15 K [m/s]
m1 = 0.027	–	–	–	–	–	–	–	1459.6 ± 1.4
m1 = 0.02709	963.872 ± 0.58	954.383 ± 0.58	949.635 ± 0.59	944.864 ± 0.59	935.312 ± 0.6	925.725 ± 0.6	916.07 ± 0.61	–
m1 = 0.0405	966.705 ± 0.58	957.208 ± 0.58	952.461 ± 0.59	947.7 ± 0.59	938.159 ± 0.59	928.568 ± 0.6	918.935 ± 0.61	1460.7 ± 1.4
m1 = 0.054	969.549 ± 0.58	960.073 ± 0.58	955.329 ± 0.58	950.578 ± 0.59	941.045 ± 0.59	931.471 ± 0.6	921.848 ± 0.61	1461.7 ± 1.4
m1 = 0.0681	972.55 ± 0.58	963.083 ± 0.58	958.342 ± 0.58	953.59 ± 0.59	944.072 ± 0.59	934.511 ± 0.6	924.9 ± 0.6	1462.9 ± 1.5
m1 = 0.08156	975.396 ± 0.58	965.94 ± 0.58	961.2 ± 0.58	956.46 ± 0.58	946.947 ± 0.59	937.4 ± 0.59	927.809 ± 0.6	1463.9 ± 1.5
m1 = 0.1073	980.845 ± 0.58	971.397 ± 0.58	966.666 ± 0.58	961.935 ± 0.58	952.463 ± 0.59	942.934 ± 0.59	933.366 ± 0.6	1466 ± 1.5
m1 = 0.1332	986.418 ± 0.58	976.985 ± 0.58	972.262 ± 0.58	967.533 ± 0.58	958.059 ± 0.59	948.552 ± 0.59	939.005 ± 0.6	1467.8 ± 1.5
m1 = 0.1592	992.026 ± 0.57	982.603 ± 0.58	977.888 ± 0.58	973.17 ± 0.58	963.711 ± 0.58	954.224 ± 0.59	944.695 ± 0.59	1470 ± 1.5
m1 = 0.1864	997.967 ± 0.57	988.557 ± 0.58	983.849 ± 0.58	979.136 ± 0.58	969.697 ± 0.58	960.23 ± 0.59	950.732 ± 0.59	1471.8 ± 1.5
m1 = 0.2118	1003.54 ± 0.58	994.141 ± 0.58	989.44 ± 0.58	984.736 ± 0.58	975.313 ± 0.58	965.882 ± 0.58	956.405 ± 0.59	1473.6 ± 1.5
m1 = 0.2613	1014.55 ± 0.59	1005.16 ± 0.58	1000.47 ± 0.58	995.784 ± 0.58	986.394 ± 0.58	976.988 ± 0.58	967.56 ± 0.58	1477.5 ± 1.5

[O-][Cl+3]([O-])([O-])[O-].[O-][Cl+3]([O-])([O-])[O-].[Zn+2] [zinc perchlorate] + CN(C)C=O
Settings	mass density, 283.15 K [kg/m3]	mass density, 293.15 K [kg/m3]	mass density, 298.15 K [kg/m3]	mass density, 303.15 K [kg/m3]	mass density, 313.15 K [kg/m3]	mass density, 323.15 K [kg/m3]	mass density, 333.15 K [kg/m3]	speed of sound, 298.15 K [m/s]
m1 = 0.03554	965.795 ± 0.58	956.309 ± 0.59	951.555 ± 0.59	946.8 ± 0.59	937.255 ± 0.6	927.66 ± 0.6	918.015 ± 0.61	1459.9 ± 1.4
m1 = 0.04966	968.825 ± 0.58	959.347 ± 0.58	954.6 ± 0.59	949.85 ± 0.59	940.315 ± 0.59	930.737 ± 0.6	921.108 ± 0.61	–
m1 = 0.05952	970.955 ± 0.58	961.484 ± 0.58	956.74 ± 0.59	951.99 ± 0.59	942.46 ± 0.59	932.889 ± 0.6	923.268 ± 0.61	1461.7 ± 1.4
m1 = 0.06946	973.095 ± 0.58	963.626 ± 0.58	958.885 ± 0.58	954.139 ± 0.59	944.619 ± 0.59	935.058 ± 0.6	925.449 ± 0.6	1462.5 ± 1.5
m1 = 0.1039	980.554 ± 0.58	971.105 ± 0.58	966.376 ± 0.58	961.642 ± 0.58	952.143 ± 0.59	942.607 ± 0.59	933.036 ± 0.6	1465 ± 1.5
m1 = 0.1369	987.781 ± 0.58	978.348 ± 0.58	973.626 ± 0.58	968.9 ± 0.58	959.426 ± 0.59	949.918 ± 0.59	940.371 ± 0.6	1467.5 ± 1.5
m1 = 0.17	995.118 ± 0.58	985.7 ± 0.58	980.987 ± 0.58	976.267 ± 0.58	966.813 ± 0.58	957.333 ± 0.59	947.816 ± 0.59	1469.6 ± 1.5
m1 = 0.2038	1002.65 ± 0.58	993.242 ± 0.58	988.537 ± 0.58	983.828 ± 0.58	974.394 ± 0.58	964.934 ± 0.59	955.438 ± 0.59	1472.1 ± 1.5
m1 = 0.2374	1010.26 ± 0.59	1000.87 ± 0.58	996.17 ± 0.58	991.474 ± 0.58	982.063 ± 0.58	972.635 ± 0.58	963.178 ± 0.59	1474.7 ± 1.5
m1 = 0.2701	1017.77 ± 0.6	1008.39 ± 0.59	1003.7 ± 0.58	999.008 ± 0.58	989.616 ± 0.58	980.208 ± 0.58	970.777 ± 0.59	1477.2 ± 1.5
m1 = 0.3002	1024.72 ± 0.61	1015.35 ± 0.6	1010.66 ± 0.59	1005.98 ± 0.59	996.605 ± 0.58	987.212 ± 0.58	977.794 ± 0.59	1479.7 ± 1.5
m1 = 0.3314	1032.04 ± 0.61	1022.68 ± 0.6	1018.01 ± 0.6	1013.33 ± 0.59	1003.97 ± 0.59	994.605 ± 0.58	985.215 ± 0.58	1482.1 ± 1.5
